Results reported in US20230312587A1, “PTERIDINONE COMPOUNDS AND USES THEREOF” (Vertex Pharmaceutical Incorporated, priority 2018, published 2023).

Key:
[1] = system: β-catenin-TCF-mediated reporter transcription activity in Colo 205 cells; assay: Colo 205 reporter assay (TCF/LEF luciferase); assay type: cell-based; conditions: Homo sapiens, COLO 205, 5 h, Colo 205 TCF/LEF luciferase reporter, five hours after addition of compound; read-out: TCF reporter Colo205 IC50
Summary of the method: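 Luciferase signal from a TCF/LEF-driven reporter, stably integrated in Colo 205 colon cancer cells, was measured 5 h after compound addition.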

[2] = system: Colo205-TCF/LEF-Luciferase (Luc) tumor; assay: In vivo inhibition of TCF/LEF reporter activity in Colo-205 tumors; parameters: concentration or dose not given beside the values; conditions: TCF/LEF luciferase reporter in Colo-205 tumors, nu/nu mice, oral gavage
Summary of the method: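 Female nu/nu mice carried subcutaneous Colo205-TCF/LEF-luciferase tumours (200–500 mm^3), n=4 per group. Compound was given by oral gavage in 1:3:5:1 EtOH:DMSO:PEG-400:H2O at 10 ml/kg, with vehicle as control. Luciferase activity in tumour lysates (Steady-Glo) was normalised to BCA protein.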

[3] = system: non-small cell lung cancer (NSCLC) adenocarcinoma line D33966; assay: In vivo efficacy, NSCLC patient derived xenograft OD33966; parameters: species or system nu/nu mice; conditions: Mus musculus, 336 h; NSCLC PDX OD33966, oral, 100 mpk qd, treatment day 14; read-out: % TGI
Method: Female immune deficient mice (Charles River, 4-6 wks age) were anesthetized with Ketamine-Xylazine (140 mg/kg-14 mg/kg ip) and shaved. Puralube eye ointment was applied to the eyes to prevent desiccation of the corneas. Betadine and 70% ethanol was applied to the shaved location to sterilize the skin at the location of the incision. The animals were placed in a biosafety cabinet for the duration of the surgery. Using scissors, an 8 to 10 mm incision was made in the lateral flank of the skin. A tumor fragment weighing between 50 and 150 mg was placed under the skin at the incision site using forceps, and staples were used to close the incision. The staples were removed 5 to 7 days after surgery. Starting approximately two weeks after implantation, animals were weighed, and tumors were measured using caliper twice weekly. Tumor volume was calculated using the formula: volume=length×width^2×0.52.
Compound administration began when xenografts reached approximately 100-300 mm3 and continued until control xenografts reached […] of the animal's body weight. Test compounds were administered orally by gastric gavage. Percent tumor growth inhibition (TG) was calculated on the indicated treatment day. Percent TGI is defined as: [1−(del T/del C)]×100%, where del T is the final minus initial average volumes of the treated group, and del C is the final minus initial average volumes of the control group. […] The tested compounds were administered orally. Vehicle control consisted of either 0.5% methylcellulose/0.1% sodium lauryl sulfate or 20% captisol. Tumor volumes were determined by caliper measurement twice a week.

[4] = system: ER stress marker proteins XBP1(s) and ATF4; assay: ER stress marker immunoblot in parental HepG2 vs WFS1 KO cells; assay type: cell-based; conditions: 6 hours, immunoblotting
Excerpt: (§1) In contrast WFS1 depletion had no effect on thapsigargin induced changes in global gene expression (FIG. 7.)

[5] = system: global gene expression in HepG2 cells; assay: Global gene expression changes in HepG2 vs WFS1 depleted cells; assay type: cell-based; conditions: HepG2, 6 hours of exposure
Excerpt: as §1

| Compound | IC50 [1] [nM] | Percent Remaining Activity at 8 hrs after Dosing [2] [%] | inhibition in vivo at 100 mg/kg [3] [%] | effect of WFS1 depletion on induction of XBP1(s) and ATF4 [4] | effect of WFS1 depletion on changes in global gene expression [5] |
| --- | --- | --- | --- | --- | --- |
| C[C@H]1C(=O)Nc2cnc(NCc3cnn(Cc4cc(F)c(F)c(F)c4)c3)nc2N1C [Compound 42, (7S)-7,8-dimethyl-2-(((1-(3,4,5-trifluorobenzyl)-1H-pyrazol-4-yl)methyl)amino)-7,8-dihydropteridin-6(5H)-one] | < 300 | 20 | 79.6 |  |  |
| C/C=C(/C)C(=O)O[C@H]1C(C)=C2[C@H]([C@@H]1OC(=O)CCCCCCC)[C@@](C)(OC(C)=O)C[C@H](OC(=O)CCC)[C@@]1(O)[C@H]2OC(=O)[C@@]1(C)O [thapsigargin, reference compound] |  |  |  | much lesser effect | no effect |
